Results as given in US20110124523A1, “High Throughput Method for Detecting Apoptosis of Embryonic Stages of Metazoan Helminthic Parasites” (INSTITUTE OF LIFE SCIENCES, priority 2009, published 2011).
“And” between values parts separate entries of the source, which are not always exact repeats. Equal entries are not always repeated.

Legend:
[1] = system: embryonic stages of S. digitata; test: Intra cellular cleavage of caspase substrate PARP, anti cleaved PARP-PE staining; type: cell-based, Setaria digitata; conditions: 24 hr
Experimental: Adult female filarial worms Setaria digitata were collected from the peritoneum of cattle, slaughtered at a nearby abattoir in sterile Hanks Balanced Salt Solution (HBSS) medium (Sigma H 2387-1L) and transported to the laboratory in a sterile container. The medium containing 1% glucose (Sigma G 7528), Penicillin 100 units/ml, Streptomycin 100 μg/ml (Sigma P 4333). And Amphotericin-B 0.25 μg/ml (Sigma A 2942) was buffered with NaHCO3 (Sigma S 5761). About 5 to 7 worms were taken in a petridish, washed three times in medium, dissected into small pieces in 10 ml of medium under sterile conditions and incubated at 37° C. for 30 minutes to allow the release of embryonic stages (eggs and microfilariae) into the medium. The embryonic stages were harvested into sterile 15 ml. centrifuge tubes and washed three times by centrifuging at 300 g for 10 minutes each with medium and the final pellet was suspended in 1 ml. of RPMI-1640 medium (Sigma R 8005) supplemented with 10% FBS (Sigma F 2442) The number of embryonic stages of S. digitata in the above preparation were counted using light microscope, and the suspension was taken in RPMI-1640 medium containing 10% FBS at 1×10^5 embryonic stages/ml. One ml. each was dispensed into individual wells of a 24 well tissue culture plate. One set of wells was taken as untreated control containing only medium with 10% FBS. […] Motility of the Mf was scored under an inverted microscope. After appropriate treatment and incubation, each set of the cultured embryonic stages of S. digitata were harvested from the 24 well tissue culture plate separately in 15 ml. sterile centrifuge tubes, washed with PBS twice and stained as per requirement following manufacturer's instructions as described below. This was followed by two times washing with PBS and final suspension of the stained embryonic stages was taken in 0.5 ml of sheath fluid (BD Biosciences 342003) before their acquisition in the flow cytometer (BD FACS Calibur, Becten and Dickinson, USA). Analysis was performed on 10,000-acquired events depicted as Dot Plots and Histogram Plots using Cellquest Pro soft ware. All plots were representative of at least 3 experiments. The distinctly clustered populations obtained consistently in the Dot plots for the intra uterine embryonic stages of S. digitata (FIG. 1 a) were gated for Mfs (R-1) and eggs (R-2 and R-3) and analyzed for different assays for apoptosis as described below. After in vitro culture for 24 hours with apoptosis inducing reagents the embryonic stages were harvested in 15 ml. sterile centrifuge tubes and fixed for 60 minutes at 0° C. in 1% paraformaldehyde (Sigma P 6148) in PBS. The suspension was washed first with PBS and then with 1× permeabilisation buffer (eBioscience 00-8333-56) and finally resuspended in 100 μl of 1× permeabilisation buffer at 1×10^5 embryonic stages per ml. This suspension was then incubated for 45 minutes with 20 μl of anti cleaved PARP-PE (BD Biosciences 552933). This was followed by washing with PBS twice and analysis by Flow cytometer.

[2] = system: embryonic stages of S. digitata; test: Fragmentation of chromosomal DNA, TUNEL staining; type: cell-based, Setaria digitata; conditions: for GMI (Geometric Mean Intensity) of Fluorescence, TUNEL Staining: 24 hr; for induction of DNA fragmentation (result in words): Mf stages and eggs, TUNEL assay
Experimental: Adult female filarial worms Setaria digitata were collected from the peritoneum of cattle, slaughtered at a nearby abattoir in sterile Hanks Balanced Salt Solution (HBSS) medium (Sigma H 2387-1L) and transported to the laboratory in a sterile container. The medium containing 1% glucose (Sigma G 7528), Penicillin 100 units/ml, Streptomycin 100 μg/ml (Sigma P 4333). And Amphotericin-B 0.25 μg/ml (Sigma A 2942) was buffered with NaHCO3 (Sigma S 5761). About 5 to 7 worms were taken in a petridish, washed three times in medium, dissected into small pieces in 10 ml of medium under sterile conditions and incubated at 37° C. for 30 minutes to allow the release of embryonic stages (eggs and microfilariae) into the medium. The embryonic stages were harvested into sterile 15 ml. centrifuge tubes and washed three times by centrifuging at 300 g for 10 minutes each with medium and the final pellet was suspended in 1 ml. of RPMI-1640 medium (Sigma R 8005) supplemented with 10% FBS (Sigma F 2442) The number of embryonic stages of S. digitata in the above preparation were counted using light microscope, and the suspension was taken in RPMI-1640 medium containing 10% FBS at 1×10^5 embryonic stages/ml. One ml. each was dispensed into individual wells of a 24 well tissue culture plate. One set of wells was taken as untreated control containing only medium with 10% FBS. […] Motility of the Mf was scored under an inverted microscope. After appropriate treatment and incubation, each set of the cultured embryonic stages of S. digitata were harvested from the 24 well tissue culture plate separately in 15 ml. sterile centrifuge tubes, washed with PBS twice and stained as per requirement following manufacturer's instructions as described below. This was followed by two times washing with PBS and final suspension of the stained embryonic stages was taken in 0.5 ml of sheath fluid (BD Biosciences 342003) before their acquisition in the flow cytometer (BD FACS Calibur, Becten and Dickinson, USA). Analysis was performed on 10,000-acquired events depicted as Dot Plots and Histogram Plots using Cellquest Pro soft ware. All plots were representative of at least 3 experiments. The distinctly clustered populations obtained consistently in the Dot plots for the intra uterine embryonic stages of S. digitata (FIG. 1 a) were gated for Mfs (R-1) and eggs (R-2 and R-3) and analyzed for different assays for apoptosis as described below. Presence of fragmentation of chromosomal DNA was detected by TUNEL staining. Briefly, the treated embryonic stages were harvested, fixed with 1% Para formaldehyde followed by washing with PBS and stored in 70% ethanol at −20° C.

Row | SMILES | GMI (Geometric Mean Intensity) of Fluorescence, PARP Cleavage ([1]; Eggs, 10 μM) | GMI (Geometric Mean Intensity) of Fluorescence, PARP Cleavage ([1]; Microfilariae, 10 μM) | GMI (Geometric Mean Intensity) of Fluorescence, TUNEL Staining ([2]; Eggs, 10 μM) | induction of DNA fragmentation (result in words) [2] | GMI (Geometric Mean Intensity) of Fluorescence, TUNEL Staining ([2]; Microfilariae, 10 μM) | efficiency in induction of apoptosis (comparison in words) ([2]; Plumbagin compared with H2O2) | GMI (Geometric Mean Intensity) of Fluorescence, PARP Cleavage ([1]; Eggs, 1 μM) | GMI (Geometric Mean Intensity) of Fluorescence, PARP Cleavage ([1]; Microfilariae, 1 μM) | GMI (Geometric Mean Intensity) of Fluorescence, TUNEL Staining ([2]; Eggs, 1 μM) | GMI (Geometric Mean Intensity) of Fluorescence, TUNEL Staining ([2]; Microfilariae, 1 μM)
1 | OO [H2O2] | 70.72 and 75.32 and 78.52 | 8.39 and 7.99 and 8.02 | 70.85 and 71.36 and 72.56 | dose dependent induction of DNA fragmentation | 13.62 and 12.52 and 14.16 |  |  |  |  | 
2 | CC1=CC(=O)c2c(O)cccc2C1=O [Plumbagin] | 102.15 and 109.36 and 110.25 | 10.01 and 11.32 and 9.67 | 104.33 and 109.68 and 105.32 | dose dependent induction of DNA fragmentation | 40.65 and 38.97 and 45.76 | more efficient than H2O2 in induction of apoptosis |  |  |  | 
3 | CN[C@@H]1C[C@H]2O[C@@](C)([C@@H]1OC)n1c3ccccc3c3c4c(c5c6ccccc6n2c5c31)C(=O)NC4 [Staurosporine] |  |  |  |  |  |  | 63.95 and 66.56 and 70.27 | 6.57 and 6.21 and 5.49 | 65.77 and 60.33 and 71.25 | 10.67 and 10.02 and 12.15
